In US11498930B2 (BLUERAY THERAPEUTICS (SHANGHAI) CO., LTD., priority 2018, dated 2022):
Read-outs that look alike come from different tables or passages of the source.

What was measured:
[1] = test system: phosphorylation level of intracellular protein kinase (ERK) in MOLM13 cells; assay: Phosphorylated protein kinase (p-ERK) cell experiment (AlphaLISA); type: cell-based; conditions: Homo sapiens, MOLM-13, MOLM13 cells
Procedure: The inhibitory activities of the compounds on the phosphorylation level of intracellular protein kinase (ERK) were determined by AlphaLISA method.
Firstly, the cells were treated with the compounds. The compounds to be tested were subjected to 3-fold dilution with 100% DMSO, and a total of 9 different concentration gradients were set. MOLM13 cells were then seeded into 96-well plates at a density of 30,000 cells per well in a volume of 100 µL per well. […] of DMSO or the test compounds with different concentrations was then transferred into each well, setting two duplicates for each concentration, and the final concentration of DMSO was controlled at 0.5%.
Secondly, the cells were lysed. After 2 hours of cell treatment, the medium was removed, and the cells were washed 3 times with phosphate buffered saline. 50 µL of freshly prepared lysis buffer was added to each well, and the plates were shaken and kept at room temperature for 10 minutes.
Thirdly, the phosphorylated extracellular signal-regulated kinase (p-ERK) was detected by AlphaLISA@ SureFire® Ultra™ p-ERK 1/2 (Thr202/Tyr204) kit (Perkin Elmer, ALSU-PERK-A10K). 10 µL of the above lysate was transferred to a 384-well plate (Perkin Elmer, 6005350), and the phosphorylation level of the extracellular signal-regulated kinase of the sample was detected according to the product instructions. The signal was read using AlphaScreen detector on Spectra max i3 (Molecular Devices). The percentage of inhibition (%) was calculated by the following formula: Inhibition percentage(%)=(1−p-ERK signal of compound-treated cells/p-ERK signal of DMSO-treated cells)*100

MOLM-13 cells = assay: MOLM-13 cell proliferation experiment; type: cell-based; conditions: Homo sapiens
Procedure: After 3 days, 5 µL of CellTiter-Glo reagent (Promega, ZG7572) was added to each well, and the plates were kept at room temperature in the dark for 10 minutes. The […] was detected by Spectra max i3 (Molecular Devices). The relative growth rate of the treated cells was compared with that of DMSO control.

SHP2^E76A protein = SHP2^E76A protein (Homo sapiens (Human), UniProt Q06124, E76A); assay: SHP2 enzyme activity inhibition experiment; type: biochemical
Outline: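 Compounds tested at 10 concentrations in 3-fold serial dilution. IC50 from a four-parameter Hill-slope nonlinear fit of enzyme activity versus concentration.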

[2] = p-ERK, 2 hours of cell treatment, Tables 2.1 and 2.2, read-out: IC50
[3] = MOLM-13, 72 h, MOLM-13 cell proliferation, 3 days, Tables 3.1 and 3.2, read-out: IC50
[4] = MOLM-13, read-out: MOLM-13 cell proliferation IC50
[5] = SHP2 enzyme activity, Tables 1.1 and 1.2, read-out: IC50
[6] = Table 4, read-out: SHP2 enzyme activity IC50

SHP2^E76A protein, sequence (Q06124 whole entry E76A): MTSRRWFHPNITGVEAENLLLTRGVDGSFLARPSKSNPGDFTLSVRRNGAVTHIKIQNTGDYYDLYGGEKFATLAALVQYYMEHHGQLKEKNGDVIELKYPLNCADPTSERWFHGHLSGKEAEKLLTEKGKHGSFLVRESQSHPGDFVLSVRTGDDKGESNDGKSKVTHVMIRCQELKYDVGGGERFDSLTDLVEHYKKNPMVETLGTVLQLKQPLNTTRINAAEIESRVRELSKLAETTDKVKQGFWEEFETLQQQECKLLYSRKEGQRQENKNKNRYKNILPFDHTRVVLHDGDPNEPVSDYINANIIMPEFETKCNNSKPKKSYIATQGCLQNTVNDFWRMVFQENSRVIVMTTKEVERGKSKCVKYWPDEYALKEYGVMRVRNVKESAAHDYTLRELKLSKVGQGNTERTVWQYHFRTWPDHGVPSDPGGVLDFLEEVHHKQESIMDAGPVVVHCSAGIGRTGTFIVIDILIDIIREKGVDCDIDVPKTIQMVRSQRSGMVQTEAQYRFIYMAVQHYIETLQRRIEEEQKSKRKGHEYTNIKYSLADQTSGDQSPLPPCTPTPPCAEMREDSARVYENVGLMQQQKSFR

Cc1nccc(Sc2cnc(N3CCC4(CCC[C@H]4N)CC3)n3ccnc23)c1Cl [(R)-8-(8-((3-chloro-2-methyl-pyridin-4-yl)thio)imidazo[1,2-c]pyrimidin-5-yl)-8-azaspiro[4.5]decan-1-amine]
IC50 ([1]; Table 4, read-out: p-ERK IC50): 0.18 µM
IC50 [1, 2]: 0.1 to 1 µM
IC50 (MOLM-13 cells; [3]): < 0.1 µM
IC50 (MOLM-13 cells; [4]): 0.058 µM
IC50 (SHP2^E76A protein; [5]): < 0.1 µM
IC50 (SHP2^E76A protein; [6]): 0.04 µM

C[C@@H]1OCC2(CCN(c3ncc(Sc4ccnc(Cl)c4Cl)c4nncn34)CC2)[C@@H]1N [(3S,4S)-8-(8-((2,3-dichloropyridin-4-yl)thio)-[1,2,4]triazolo[4,3-c]pyrimidin-5-yl)-3-methyl-2-oxa-8-azaspiro[4.5]decan-4-amine]
IC50 ([1]; Table 4, read-out: p-ERK IC50): 0.161 µM
IC50 (MOLM-13 cells; [4]): 0.133 µM
IC50 (SHP2^E76A protein; [5]): < 0.1 µM
IC50 (SHP2^E76A protein; [6]): 0.005 µM

CC1C[C@@H](N)C2(CCN(c3ncc(Sc4cccc(Cl)c4Cl)c4nncn34)CC2)C1 (stereo partly drawn) [(1R)-8-(8-((2,3-dichlorophenyl)thio)-[1,2,4]triazolo[4,3-c]pyrimidin-5-yl)-3-methyl-8-azaspiro[4.5]decan-1-amine]
IC50 ([1]; Table 4, read-out: p-ERK IC50): 0.064 µM
IC50 (MOLM-13 cells; [3]): < 0.1 µM
IC50 (MOLM-13 cells; [4]): 0.059 µM
IC50 (SHP2^E76A protein; [5]): < 0.1 µM
IC50 (SHP2^E76A protein; [6]): 0.004 µM

C[C@@H]1OCC2(CCN(c3ncc(Sc4cccc(Cl)c4Cl)c4nncn34)CC2)[C@@H]1N
IC50 ([1]; Table 4, read-out: p-ERK IC50): 0.195 µM
IC50 (MOLM-13 cells; [4]): 0.158 µM
IC50 (SHP2^E76A protein; [6]): 0.003 µM

Cc1nccc(Sc2cnc(N3CCC4(CC3)CO[C@@H](C)[C@H]4N)n3cnnc23)c1Cl [(3S,4S)-8-(8-((3-chloro-2-methylpyridin-4-yl)thio)-[1,2,4]triazolo[4,3-c]pyrimidin-5-yl)-3-methyl-2-oxa-8-azaspiro[4.5]decan-4-amine]
IC50 ([1]; Table 4, read-out: p-ERK IC50): 0.369 µM
IC50 [1, 2]: 0.1 to 1 µM
IC50 (MOLM-13 cells; [4]): 0.277 µM
IC50 (SHP2^E76A protein; [5]): < 0.1 µM
IC50 (SHP2^E76A protein; [6]): 0.017 µM

C[C@@H]1OCC2(CCN(c3ncc(Sc4cccc(Cl)c4Cl)c4nccn34)CC2)[C@@H]1N [(3S,4S)-8-(8-((2,3-dichlorophenyl)thio)imidazo[1,2-c]pyrimidin-5-yl)-3-methyl-2-oxa-8-azaspiro[4.5]decan-4-amine]
IC50 ([1]; Table 4, read-out: p-ERK IC50): 0.103 µM
IC50 [1, 2]: 0.1 to 1 µM
IC50 (MOLM-13 cells; [3]): < 0.1 µM
IC50 (MOLM-13 cells; [4]): 0.068 µM
IC50 (SHP2^E76A protein; [5]): < 0.1 µM
IC50 (SHP2^E76A protein; [6]): 0.008 µM

C=CC(=O)Nc1cccc(Sc2cnc(N3CCC4(CCC[C@H]4N)CC3)n3cnnc23)c1Cl [(R)-N-(3-((5-(1-amino-8-azaspiro[4.5]decan-8-yl)-[1,2,4]triazolo[4,3-c]pyrimidin-8-yl)thio)-2-chlorophenyl)acrylamide]
IC50 [1, 2]: 1 to 10 µM
IC50 (MOLM-13 cells; [3]): 0.1 to 1 µM
IC50 (SHP2^E76A protein; [5]): 0.1 to 1 µM

Nc1cc(Sc2cnc(N3CCC4(CCC[C@H]4N)CC3)n3ncnc23)c(Cl)c(Cl)n1 [(R)-8-(8-((6-amino-2,3-dichloropyridin-4-yl)thio)-[1,2,4]triazolo[1,5-c]pyrimidin-5-yl)-8-azaspiro[4.5]decan-1-amine]
IC50 [1, 2]: 0.1 to 1 µM
IC50 (MOLM-13 cells; [3]): 0.1 to 1 µM
IC50 (SHP2^E76A protein; [5]): 0.1 to 1 µM

Nc1nccc(Sc2cnc(N3CCC4(CC3)COC[C@H]4N)n3cnnc23)c1Cl [(S)-8-(8-((2-amino-3-chloropyridin-4-yl)thio)-[1,2,4]triazolo[4,3-c]pyrimidin-5-yl)-2-oxa-8-azaspiro[4.5]decan-4-amine]
IC50 [1, 2]: 0.1 to 1 µM
IC50 (MOLM-13 cells; [3]): 1 to 10 µM
IC50 (SHP2^E76A protein; [5]): 0.1 to 1 µM

N[C@@H]1CCCC12CCN(c1ncc(Sc3ccncc3C(F)(F)F)c3nccn13)CC2 [(R)-8-(8-((3-(trifluoromethyl)pyridin-4-yl)thio)imidazo[1,2-c]pyrimidin-5-yl)-8-azaspiro[4.5]decan-1-amine]
IC50 [1, 2]: 0.1 to 1 µM
IC50 (MOLM-13 cells; [3]): 0.1 to 1 µM
IC50 (SHP2^E76A protein; [5]): < 0.1 µM

Cc1nc(N)cc(Sc2cnc(N3CCC4(CCC[C@H]4N)CC3)n3ccnc23)c1Cl [(R)-8-(8-((6-amino-3-chloro-2-methyl-pyridin-4-yl)thio)imidazo[1,2-c]pyrimidin-5-yl)-8-azaspiro[4.5]decan-1-amine]
IC50 ([1]; Table 4, read-out: p-ERK IC50): 0.037 µM
IC50 [1, 2]: < 0.1 µM
IC50 (MOLM-13 cells; [4]): 0.21 µM
IC50 (SHP2^E76A protein; [6]): 0.017 µM

N[C@@H]1CCCC12CCN(c1ncc(Sc3cccc4ccccc34)c3nccn13)CC2 [(R)-8-(8-(naphthalen-1-ylthio)imidazo[1,2-c]pyrimidin-5-yl)-8-azaspiro[4.5]decan-1-amine]
IC50 ([1]; Table 4, read-out: p-ERK IC50): 0.49 µM
IC50 [1, 2]: 0.1 to 1 µM
IC50 (MOLM-13 cells; [3]): 0.1 to 1 µM
IC50 (MOLM-13 cells; [4]): 0.15 µM
IC50 (SHP2^E76A protein; [5]): < 0.1 µM
IC50 (SHP2^E76A protein; [6]): 0.028 µM

N[C@@H]1CCCC12CCN(c1ncc(Sc3cccc(Cl)c3Cl)c3nccn13)CC2 [(R)-8-(8-((2,3-dichlorophenyl)thio)imidazo[1,2-c]pyrimidin-5-yl)-8-azaspiro[4.5]decan-1-amine]
IC50 [1, 2]: 0.1 to 1 µM
IC50 (MOLM-13 cells; [3]): 0.1 to 1 µM
IC50 (SHP2^E76A protein; [5]): < 0.1 µM

Nc1nccc(Sc2cnc(N3CCC4(CCC[C@H]4N)CC3)n3ccnc23)c1Cl [(R)-8-(8-((2-amino-3-chloropyridin-4-yl)thio)imidazo[1,2-c]pyrimidin-5-yl)-8-azaspiro[4.5]decan-1-amine]
IC50 ([1]; Table 4, read-out: p-ERK IC50): 0.41 µM
IC50 [1, 2]: 0.1 to 1 µM
IC50 (MOLM-13 cells; [3]): 0.1 to 1 µM
IC50 (MOLM-13 cells; [4]): 0.27 µM
IC50 (SHP2^E76A protein; [5]): < 0.1 µM
IC50 (SHP2^E76A protein; [6]): 0.02 µM

CC1C[C@@H](N)C2(CCN(c3ncc(Sc4cc(N)nc(Cl)c4Cl)c4nncn34)CC2)C1 (stereo partly drawn) [(1R)-8-(8-((6-amino-2,3-dichloropyridin-4-yl)thio)-[1,2,4]triazolo[4,3-c]pyrimidin-5-yl)-3-methyl-8-azaspiro[4.5]decan-1-amine]
IC50 ([1]; Table 4, read-out: p-ERK IC50): 0.047 µM
IC50 [1, 2]: < 0.1 µM
IC50 (MOLM-13 cells; [3]): < 0.1 µM
IC50 (MOLM-13 cells; [4]): 0.017 µM
IC50 (SHP2^E76A protein; [5]): < 0.1 µM
IC50 (SHP2^E76A protein; [6]): 0.002 µM

C[C@@H]1OCC2(CCN(c3ncc(Sc4cc(N)nc(Cl)c4Cl)c4nccn34)CC2)[C@@H]1N [(3S,4S)-8-(8-((6-amino-2,3-dichloropyridin-4-yl)thio)imidazo[1,2-c]pyrimidin-5-yl)-3-methyl-2-oxa-8-azaspiro[4.5]decan-4-amine]
IC50 ([1]; Table 4, read-out: p-ERK IC50): 0.047 µM
IC50 [1, 2]: < 0.1 µM
IC50 (MOLM-13 cells; [3]): < 0.1 µM
IC50 (MOLM-13 cells; [4]): 0.05 µM
IC50 (SHP2^E76A protein; [5]): < 0.1 µM
IC50 (SHP2^E76A protein; [6]): 0.01 µM

N[C@@H]1CCCC12CCN(c1ncc(Sc3ccncc3Cl)c3nccn13)CC2 [(R)-8-(8-((3-chloropyridin-4-yl)thio)imidazo[1,2-c]pyrimidin-5-yl)-8-azaspiro[4.5]decan-1-amine]
IC50 [1, 2]: 0.1 to 1 µM
IC50 (MOLM-13 cells; [3]): 0.1 to 1 µM
IC50 (SHP2^E76A protein; [5]): 0.1 to 1 µM

Cc1nccc(Sc2cnc(N3CCC4(CC3)CO[C@@H](C)[C@H]4N)n3ccnc23)c1Cl [(3S,4S)-8-(8-((3-chloro-2-methylpyridin-4-yl)thio)imidazo[1,2-c]pyrimidin-5-yl)-3-methyl-2-oxa-8-azaspiro[4.5]decan-4-amine]
IC50 ([1]; Table 4, read-out: p-ERK IC50): 0.019 µM
IC50 [1, 2]: < 0.1 µM
IC50 (MOLM-13 cells; [3]): < 0.1 µM
IC50 (MOLM-13 cells; [4]): 0.05 µM
IC50 (SHP2^E76A protein; [5]): < 0.1 µM
IC50 (SHP2^E76A protein; [6]): 0.015 µM

Nc1cc(Sc2cnc(N3CCC4(CC3)CC(F)(F)C[C@H]4N)n3ccnc23)c(Cl)c(Cl)n1 [(R)-8-(8-((6-amino-2,3-dichloropyridin-4-yl)thio)imidazo[1,2-c]pyrimidin-5-yl)-3,3-difluoro-8-azaspiro[4.5]decan-1-amine]
IC50 ([1]; Table 4, read-out: p-ERK IC50): 0.062 µM
IC50 [1, 2]: < 0.1 µM
IC50 (MOLM-13 cells; [3]): 0.1 to 1 µM
IC50 (MOLM-13 cells; [4]): 0.15 µM
IC50 (SHP2^E76A protein; [5]): < 0.1 µM
IC50 (SHP2^E76A protein; [6]): 0.035 µM

Cn1ccc2c(Sc3cnc(N4CCC5(CCC[C@H]5N)CC4)n4ccnc34)ccnc21 [(R)-8-(8-((1-methyl-1H-pyrrolo[2,3-b]pyridin-4-yl)thio)imidazo[1,2-c]pyrimidin-5-yl)-8-azaspiro[4.5]decan-1-amine]
IC50 [1, 2]: 0.1 to 1 µM
IC50 (MOLM-13 cells; [3]): 0.1 to 1 µM
IC50 (SHP2^E76A protein; [5]): < 0.1 µM

CC1(N)CCN(c2ncc(Sc3ccnc(N)c3Cl)c3nncn23)CC1 [4-((5-(4-amino-4-methylpiperidin-1-yl)-[1,2,4]triazolo[4,3-c]pyrimidin-8-yl)thio)-3-chloropyridin-2-amine]
IC50 [1, 2]: 1 to 10 µM
IC50 (MOLM-13 cells; [3]): 1 to 10 µM
IC50 (SHP2^E76A protein; [5]): 0.1 to 1 µM

N[C@@H]1CCC12CCN(c1ncc(Sc3cccc(Cl)c3Cl)c3nccn13)CC2 [(R)-7-(8-((2,3-dichlorophenyl)thio)imidazo[1,2-c]pyrimidin-5-yl)-7-azaspiro[3.5]nonan-1-amine]
IC50 [1, 2]: 0.1 to 1 µM
IC50 (MOLM-13 cells; [3]): 0.1 to 1 µM
IC50 (SHP2^E76A protein; [5]): 0.1 to 1 µM

CC1(N)CCN(c2ncc(Sc3cccc(Cl)c3Cl)c3nncn23)CC1 [1-(8-((2,3-dichlorophenyl)thio)-[1,2,4]triazolo[4,3-c]pyrimidin-5-yl)-4-methylpiperidin-4-amine]
IC50 [1, 2]: 1 to 10 µM
IC50 (MOLM-13 cells; [3]): 1 to 10 µM
IC50 (SHP2^E76A protein; [5]): 0.1 to 1 µM
